Laboratory results reported in US8119614B2, “Substitution derivatives of N6-benzyladenosine, methods of their preparation, their use for preparation of drugs, cosmetic preparations and growth regulators, pharmaceutical preparations, cosmetic preparations and growth regulators containing these compounds” (Ustav Experimentalni Botaniky Akademie Ved Ceske Republiky, priority 2002, dated 2012).
Peptide text beside a SMILES is read from it. * marks the point of attachment. Cbz = O=C(OCc1ccccc1)*; CH2F = FC*

System: HL-60 cells
Experiment: HL-60 cell proliferation and viability (FDA/PI staining)
Format: cell-based, human
Settings: 50 μM Z-VAD-FMK with 20 μM 2OH3MeOBAPR, 72 h (FIG. 10)
Experimental: Cell culture. A suspension of human promyelocytic HL-60 cells was cultured in RPMI-1640 medium supplemented with a 10% calf foetal serum and antibiotics in 5% CO2 atmosphere at 37° C. Cells were maintained at density from 1×10^5 to 6×10^5 cells per ml. HL-60 cells were obtained from ECACC.
Cell viability assay. Double staining with fluorescein diacetate (FDA) and propidium iodide (PI) for discrimination of dead and living cells was used. Cells were stained in growing medium with PI at a concentration 10 μg/ml 5 min later FDA was added at a concentration 1 μg/ml. The percentage of dead cells (i.e., red stained cells) was evaluated using fluorescence microscopy (Mlejnek and Kolman 1999).

`COC(=O)C[C@H](NC(=O)[C@H](C)NC(=O)[C@@H](NC(=O)OCc1ccccc1)C(C)C)C(=O)CF` [Z-VAD-FMK, reference compound] (Cbz-Val-Ala-Asp(OMe)-CH2F) was tested, and the “effect of caspase inhibitor on 2OH3MeOBAPR induced apoptosis and cell death” value was “suppress morphological and biochemical characteristics of apoptosis, however it does not inhibit cell death itself”.
